Measured values taken from ChEMBL document CHEMBL4422610, “HDAC as onco target: Reviewing the synthetic approaches with SAR study of their inhibitors” (Eur J Med Chem, 2018).

Experiments:
Histone deacetylase 1 = Histone deacetylase 1 (Homo sapiens, UniProt Q13547); assay: Inhibition of human HDAC1 using fluorogenic HDAC substrate
Histone deacetylase 2 = Histone deacetylase 2 (Homo sapiens, UniProt Q92769); assay: Inhibition of human HDAC2 using fluorogenic HDAC substrate
Histone deacetylase 5 = Histone deacetylase 5 (Homo sapiens, UniProt Q9UQL6); assay: Inhibition of human HDAC5 using fluorogenic HDAC substrate
Chain of Histone deacetylase 5 (Q9UQL6 whole entry): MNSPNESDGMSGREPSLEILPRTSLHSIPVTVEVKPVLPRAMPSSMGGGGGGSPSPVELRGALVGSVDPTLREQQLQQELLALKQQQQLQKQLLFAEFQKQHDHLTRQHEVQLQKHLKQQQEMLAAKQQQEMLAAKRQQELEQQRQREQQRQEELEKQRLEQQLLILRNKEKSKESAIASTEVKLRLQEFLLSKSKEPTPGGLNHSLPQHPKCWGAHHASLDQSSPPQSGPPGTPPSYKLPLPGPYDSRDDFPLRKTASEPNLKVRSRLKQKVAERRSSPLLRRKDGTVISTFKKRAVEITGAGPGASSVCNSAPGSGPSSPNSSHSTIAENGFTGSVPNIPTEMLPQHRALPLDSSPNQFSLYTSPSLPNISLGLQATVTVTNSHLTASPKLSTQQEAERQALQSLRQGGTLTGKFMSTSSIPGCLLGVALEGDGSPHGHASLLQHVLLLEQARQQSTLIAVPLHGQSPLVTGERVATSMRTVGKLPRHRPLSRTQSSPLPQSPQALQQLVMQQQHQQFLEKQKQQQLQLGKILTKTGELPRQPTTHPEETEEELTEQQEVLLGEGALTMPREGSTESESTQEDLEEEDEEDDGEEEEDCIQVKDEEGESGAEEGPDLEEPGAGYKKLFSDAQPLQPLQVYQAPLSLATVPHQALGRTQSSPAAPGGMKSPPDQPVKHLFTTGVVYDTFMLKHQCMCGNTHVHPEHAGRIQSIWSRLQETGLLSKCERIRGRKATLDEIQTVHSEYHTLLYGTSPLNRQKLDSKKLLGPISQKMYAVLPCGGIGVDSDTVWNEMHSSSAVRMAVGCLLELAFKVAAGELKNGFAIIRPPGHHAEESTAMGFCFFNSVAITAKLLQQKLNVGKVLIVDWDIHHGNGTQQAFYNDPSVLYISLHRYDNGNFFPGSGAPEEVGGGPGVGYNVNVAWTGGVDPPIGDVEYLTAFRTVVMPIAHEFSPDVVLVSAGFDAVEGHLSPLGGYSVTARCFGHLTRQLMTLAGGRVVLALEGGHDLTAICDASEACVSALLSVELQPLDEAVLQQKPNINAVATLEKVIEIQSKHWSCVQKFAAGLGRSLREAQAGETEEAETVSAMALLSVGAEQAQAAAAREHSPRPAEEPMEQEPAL

[1] = target: T1, Polyamine deacetylase HDAC10 (Homo sapiens, UniProt Q969S8); assay: Inhibition of human HDAC10 using fluorogenic HDAC substrate
T1 sequence (Q969S8 whole entry): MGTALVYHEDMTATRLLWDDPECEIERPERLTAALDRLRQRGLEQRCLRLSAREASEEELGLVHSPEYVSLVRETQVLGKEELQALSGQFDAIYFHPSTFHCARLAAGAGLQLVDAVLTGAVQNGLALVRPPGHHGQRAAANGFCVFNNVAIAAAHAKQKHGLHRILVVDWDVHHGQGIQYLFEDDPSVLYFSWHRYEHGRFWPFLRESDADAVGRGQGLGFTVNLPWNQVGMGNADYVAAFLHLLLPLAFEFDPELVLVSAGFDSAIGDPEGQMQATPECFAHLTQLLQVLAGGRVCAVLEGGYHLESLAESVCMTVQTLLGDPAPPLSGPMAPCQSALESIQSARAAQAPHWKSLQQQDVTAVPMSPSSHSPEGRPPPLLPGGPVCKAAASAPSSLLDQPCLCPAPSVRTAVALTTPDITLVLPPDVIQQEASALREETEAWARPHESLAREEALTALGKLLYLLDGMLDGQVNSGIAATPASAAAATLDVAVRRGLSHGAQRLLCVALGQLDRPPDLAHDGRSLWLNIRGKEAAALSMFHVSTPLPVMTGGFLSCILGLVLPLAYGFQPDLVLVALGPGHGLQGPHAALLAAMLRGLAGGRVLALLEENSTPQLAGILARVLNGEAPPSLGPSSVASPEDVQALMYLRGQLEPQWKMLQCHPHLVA

Chain of Histone deacetylase 2 (Q92769 whole entry): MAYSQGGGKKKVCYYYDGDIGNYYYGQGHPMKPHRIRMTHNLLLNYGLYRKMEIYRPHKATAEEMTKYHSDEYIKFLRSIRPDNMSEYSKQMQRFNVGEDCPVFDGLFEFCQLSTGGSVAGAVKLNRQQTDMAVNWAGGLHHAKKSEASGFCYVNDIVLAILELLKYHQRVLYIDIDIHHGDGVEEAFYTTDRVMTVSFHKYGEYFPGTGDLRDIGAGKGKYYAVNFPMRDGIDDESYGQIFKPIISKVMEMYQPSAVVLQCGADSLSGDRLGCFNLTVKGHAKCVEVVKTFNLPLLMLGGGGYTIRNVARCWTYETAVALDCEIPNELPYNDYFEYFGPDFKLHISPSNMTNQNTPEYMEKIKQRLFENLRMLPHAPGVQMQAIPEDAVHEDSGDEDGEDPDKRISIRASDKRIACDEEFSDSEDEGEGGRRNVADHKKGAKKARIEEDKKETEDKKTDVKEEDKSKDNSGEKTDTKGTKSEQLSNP
Chain of Histone deacetylase 1 (Q13547 whole entry): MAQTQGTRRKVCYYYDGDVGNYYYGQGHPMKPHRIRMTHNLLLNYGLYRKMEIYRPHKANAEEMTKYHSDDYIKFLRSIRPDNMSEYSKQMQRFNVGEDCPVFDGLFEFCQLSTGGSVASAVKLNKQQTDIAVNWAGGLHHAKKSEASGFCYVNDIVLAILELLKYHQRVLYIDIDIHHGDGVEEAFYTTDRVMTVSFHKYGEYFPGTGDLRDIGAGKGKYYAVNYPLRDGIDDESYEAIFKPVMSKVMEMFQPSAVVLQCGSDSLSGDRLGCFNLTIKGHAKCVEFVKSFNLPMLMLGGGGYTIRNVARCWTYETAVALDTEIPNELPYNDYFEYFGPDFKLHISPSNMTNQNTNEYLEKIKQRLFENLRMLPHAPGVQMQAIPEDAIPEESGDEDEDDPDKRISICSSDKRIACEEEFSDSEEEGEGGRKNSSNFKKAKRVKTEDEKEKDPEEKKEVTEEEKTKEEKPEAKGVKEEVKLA

`O=C(NO)c1ccc(CN2c3ccccc3CC[C@@H]3CCCC[C@H]32)cc1` gave an IC50 (Histone deacetylase 1) of 4.9 µM, an IC50 (Histone deacetylase 2) of 26 µM and an IC50 (Histone deacetylase 5) of 12 µM. The IC50 [1] was 14 µM.
